The nature of one data set: in vitro. The conditions noted are these: human, hela cells.
One may read the viability as a read-out of living cells in per cent, often relative to untreated cells. As for `CNC(=O)Oc1ccc(C2(C)SCCS2)cc1` [CBK023078], the viability at 28.5 h, 10 µM came to 98.9%. The same measure, in the same setting: the value for `CNC(=O)Oc1ccccc1/C=N/N(C)C` [CBK023194] was 97.5%.

The data set is the same for the next values; noted with them: human, hela cells, % viability.
`COc1cc(/C(CS(C)(=O)=O)=N\O)cc(OC)c1OC` [CBK022984]: the viability at 28.5 h, 10 µM was found to be 83.8%.

Take `CC(/C(=N/O)c1ccccc1)C(O)c1ccccn1` (stereo not drawn) [CBK022993]: the viability at 28.5 h, 10 µM came to 83.3%. On the same count and under the same terms, under `COc1ccc(C(=O)[C@@H]2CCCC[C@H]2N)cc1` [CBK023040C] stands 91.6%; under `OC1(c2ccc(Cl)cc2)CCNCC1` [CBK023044], 92%; under `O=C(Nc1ccccc1)OCC(CN1CCCCC1)OC(=O)Nc1ccccc1` (stereo not drawn) [CBK023067C], 103%. The same measure, in the same setting: the value for `CC1(C)CCCN1C1=NC(=O)C(c2ccccc2)O1` (stereo not drawn) [CBK023070] was 104%; that for `CCOC(=O)n1c(=O)n2n(c1=O)CC=CC2` [CBK023102] was 93.9%; that for `Nc1ccc(Cl)cc1C(O)(CCCN1CCCCC1)c1ccccc1` (stereo not drawn) [CBK023107] was 98.1%. Still for that read-out and setting: the value for `Cc1cc2nc(NS(C)(=O)=O)n(S(C)(=O)=O)c2cc1C` [CBK023112] was 106%; that for `COc1ccc(C(=O)C2CCCCC23NCCN3)cc1` (stereo not drawn) [CBK023140] was 104%.

With `CCN(CC)CCN(CC(=O)Nc1c(C)cccc1Cl)Cc1ccccc1` [CBK023143], the viability at 28.5 h, 10 µM worked out at 97.7%. Still for that read-out and setting: the value for `Cc1nc2c(c(CCC(=O)O)n1)CCCC2` [CBK023157] was 98.4%; that for `CC1CCCN(C(=O)N(C)C)C1` (stereo not drawn) [CBK023175] was 118%; that for `CCN(CC)CCCOC(=O)C(CCSC)c1ccccc1C` (stereo not drawn) [CBK023177C] was 91.7%. On the same count and under the same terms, the value for `O=C(O)c1ccc(NS(=O)(=O)c2ccccc2)cc1O` [CBK023181] was 96.1%; that for `CC1CCCCN1CC(=O)Nc1ccccc1Oc1ccccc1` (stereo not drawn) [CBK023182C] was 95.1%; that for `O=S(=O)(c1ccccc1)C1CC1` [CBK023184] was 89%. Same read-out and setting: the value for `Nc1nc2cc3c(cc2[nH]1)OCO3` [CBK023191] was 96.6%; that for `CCOC(=O)c1nc(N)c2c(CC#N)nn(C)c2n1` [CBK023254] was 109%. As for `NC(=S)Nc1nc(-c2ccc(Br)cc2)cs1` [CBK023259], the viability at 28.5 h, 10 µM was 100%. `O=S(=O)(/N=C/N1CCCC1)c1ccccc1` [CBK023272]: the viability at 28.5 h, 10 µM was 89.4%.

Consider `CCOC(=O)CNC1CCCCC1` [CBK023276C], for which the viability at 28.5 h, 10 µM was determined as 91%. Still for that read-out and setting: the value for `COC(=O)c1c(O)noc1C` [CBK023348] was 95.6%; that for `Cn1c2ccccc2c2nnc(NCCCCO)nc21` [CBK023366] was 98.8%; that for `C(#Cc1ccc(-c2cc[nH]n2)s1)c1ccccc1` [CBK023413] was 118%.

On to `O=C(CSc1n[nH]c(=S)s1)NCCc1ccccc1` [CBK023445], for which the viability at 28.5 h, 10 µM was found to be 99.2%. `Nc1nnc(C(F)(F)F)o1` [CBK023457]: the viability at 28.5 h, 10 µM was determined as 113%. On to `CCCN(C(=O)OC(C)(C)C)C1CCc2[nH]c(=O)c(C#N)cc2C1` (stereo not drawn) [CBK023470], for which the viability at 28.5 h, 10 µM amounted to 99.7%.

On to `CCOC(=O)c1c(NC(C)=O)nc2n1CCS2` [CBK023488], for which the viability at 28.5 h, 10 µM is 98.5%. The same measure, in the same setting: under `Cc1ccc(S(=O)(=O)NC(=O)N2CC3(C)CC2CC(C)(C)C3)cc1` (stereo not drawn) [CBK023512] stands 110%; under `CCCCC(c1nnn[nH]1)n1nnc2ccccc21` (stereo not drawn) [CBK023526], 93.6%. For the molecule `CCCC1CN(C)c2ccccc2C1=O` (stereo not drawn) [CBK023527], the viability at 28.5 h, 10 µM was 87%. For `Cn1c(=O)c2c(-c3ccccc3)onc2n(C)c1=O` [CBK023569], the viability at 28.5 h, 10 µM was found to be 85%. Same read-out and setting: the value for `CC(C)(C)C(C#N)C(Oc1ccc(Cl)cc1)n1cncn1` (stereo not drawn) [CBK023570] was 90.3%.

In the case of `CC1c2ccsc2CCN1S(C)(=O)=O` (stereo not drawn) [CBK023574], the viability at 28.5 h, 10 µM worked out at 86.2%.

Consider `S=c1[nH]nc(-c2ccco2)n1-c1ccc(Cl)cc1` [CBK023586], for which the viability at 28.5 h, 10 µM was 97.8%. Turning to `COC(=O)c1sccc1S(=O)(=O)N1CCN(c2ncnc3scc(C)c23)CC1` [CBK023600], the viability at 28.5 h, 10 µM stood at 94.2%. On to `CSCc1nc(CS(=O)(=O)Cc2cccc(C(F)(F)F)c2)no1` [CBK023617], for which the viability at 28.5 h, 10 µM amounted to 87.8%. `O=c1c(C(F)(F)F)cccn1Cc1ccccc1` [CBK023620]: the viability at 28.5 h, 10 µM turned out to be 107%. Still for that read-out and setting: the value for `CCOC(=O)N1CCN(C(=O)c2oc3ccccc3c2C)CC1` [CBK023696] was 92.4%; that for `CCCCN1CCCC1c1c[nH]c2ccccc12` (stereo not drawn) [CBK023773G] was 93%; that for `Cc1c(C(=O)CCN(C)C2CC=C(c3ccc(F)cc3)CC2)cnn1CCO` (stereo not drawn) [CBK023799] was 90.4%. Still for that read-out and setting: the value for `Cc1nc(Nc2ccc(Cl)cc2)nc(N2CCN(C)CC2)n1` [CBK023855] was 95.4%; that for `Cc1nc(NCc2ccc(C(F)(F)F)cc2)nc(N2CCN(C)CC2)n1` [CBK023866] was 112%. Still for that read-out and setting: the value for `CN(c1ncccc1C#N)C1CCN(C(=O)OCc2ccccc2)CC1` [CBK023869C] was 84.1%. Turning to `O=C(Cn1c(NCCCO)nc2ccccc21)c1cccs1` [CBK023894B], the viability at 28.5 h, 10 µM amounted to 96.5%. Same read-out and setting: under `CCN(CC)CC(=O)Nc1c2c(nc3ccccc13)N(C)CC2` [CBK023917C] stands 110%. The same measure, in the same setting: the value for `COc1cc2c(cc1OC)C(CCN)=NCC2` [CBK023947C] was 86.6%; that for `CN1CCN(CCCCn2nc3n(c2=O)-c2ccccc2OC3(C)C)CC1` [CBK023953C] was 95.8%. On the same count and under the same terms, the value for `c1coc(CCC2NCCn3cccc32)c1` (stereo not drawn) [CBK023964F] was 95.2%. For `CCCC(=O)c1ccc2c(c1)CC(N(CCC)CCC)C2` (stereo not drawn) [CBK023971C], the viability at 28.5 h, 10 µM worked out at 95.1%.

As for `N=C(N)NCCc1c[nH]c2ccccc12` [CBK024011G], the viability at 28.5 h, 10 µM came to 107%. The same measure, in the same setting: under `COc1ccc(CCNCC2OCCc3cccc(OC)c32)cc1OC` (stereo not drawn) [CBK024032C] stands 118%.

For `COc1cc2c(cc1OC)C(CCN1CCN(c3ccccc3C)CC1)OCC(C)(C)C2` (stereo not drawn) [CBK024043C], the viability at 28.5 h, 10 µM was determined as 98.5%. On the same count and under the same terms, the value for `COc1cc2c(cc1OC)C(CCN1CCN(c3ccc(Cl)cc3)CC1)OCC(C)(C)C2` (stereo not drawn) [CBK024051C] was 111%; that for `CCOC(=O)c1cnn(-c2ccccc2)c1NS(=O)(=O)c1cccc(Cl)c1C` [CBK024055] was 84.6%. Still for that read-out and setting: the value for `O=C(CNC(=O)OCc1ccncc1)NCC(CCCN1CCC(c2ccccc2)CC1)(c1ccccc1)c1ccccc1` [CBK024060A] was 112%; that for `CCCc1ncc(C[n+]2ccccc2C)c(N)n1` [CBK024255C] was 96.1%; that for `CCC#CC(=O)Nc1ccccc1N1CCCNCC1` [CBK024291T] was 98.5%. On to `Oc1ccc2nc(N[C@H]3CC4CCC3C4)sc2c1Cl` (stereo partly drawn) [CBK024348G], for which the viability at 28.5 h, 10 µM came to 62.1%.

Turning to `COc1cc2c3c(cccc3c1)CC(C)(N(C)C)C2` (stereo not drawn) [CBK024357C], the viability at 28.5 h, 10 µM worked out at 105%.

For the origin of these results see paper PMC12040169 (PLOS Biology, 2025).
